Measurements reported in patent US20090054507A1, “CONTROL OF MALIGNANT CELLS BY KINASE INHIBITION” (CLEVELAND STATE UNIVERSITY, priority 2006, published 2009).

Experiments:
tumor tissue and organs = experiment: Hematoxylin & eosin staining of tumor tissue and organs of treated xenograft mice (all cell lines); format: in vivo
Protocol: Hematoxylin & eosin staining of tumor tissue and organs. After euthanasia with CO2, mice were supposed to necropsy. Tumors were collected from under the skin from both flanks and were measured for the last time and then fixed in formalin fixative. Spleen, liver, kidney, brain, lungs and legs were collected and fixed. Spleens were also measured (as length, […]). Fresh tissue was immersed immediately into liquid nitrogen and kept frozen at −80° C. Fixed tissue was embedded in paraffin and next processed for H&E (the basic dye hematoxylin, and the alcohol-based synthetic material, eosin) by the Cleveland Clinic Histology Core facility. Sections (4-μm thick) were stained with hematoxylin and eosin and evaluated for pathologic changes in a blinded fashion. H&E staining gives morphological information (vascularization, normal proliferating tissue, necrosis and apoptosis of the tissue).

[1] = 25 mg/kg twice daily, injections in mice; cited from earlier work
MEG-01 cells = experiment: Viability (proliferation) assay, Trypan blue exclusion, MEG-01; format: cell-based, human
WM-164 cells = experiment: Proliferation assay in vitro, WM-164; format: cell-based, human; settings: for cell counts: four days
Source text: Viability (proliferation) assay, Trypan blue exclusion. Cells were counted using a Neubauer hemacytometer.

MEG-01 xenografts = experiment: In vivo therapy of MEG-01 xenografts, tumor volume; parameters: species or system mice; settings: for tumor volume: subcutaneous in the neck, 2 weeks
Source text: Creation of MEG-01 xenografts. Immunodeficient male athymic nude nu/nu mice were used, provided and housed by Dr. Lindner, D J from Taussig Cancer Center, Cleveland Clinic and Case Western Reserve University. The mice were checked every day. The mice were housed in filtered air flow cabinets with autoclaved bedding at a density of 5 mice/cage. They were fed autoclaved Purina Lab Rodent Chow® 5010 and HCl-acidified distilled water ad libitum and were placed in rooms with controlled temperature, humidity and 12-hr light-dark cycles. Procedures involving animals and their care were conducted in conformity with the institutional guidelines that are in compliance with national and international laws and policies (EEC Council Directive 86/609, OJL 358, Dec. 1, 1987, and the National Institutes of Health Guide for the Care and Use of Laboratory, Animals, NIH Publication 85-23, 1985).
For engraftment, cells in cell culture media were injected. MEG-01 myeloid blast crisis cells (10×10^6 cells/100 μl in cell culture media (RPMI 1640 1×, 10% FBS) were injected subcutaneously into the lower flanks of mice (left and right). Cells were counted with a hemacytometer using Trypan blue (only live cells were counted).
After 10 days the mice developed tumors large enough to start the treatment. Tumors were visible after 6-7 days from inoculation. The average weight of the mice typically ranged 30-35 g. Treatment with DMAT was started when tumors were at least 100-200 mm^3 volumes (prolate spheroid). Tumor volumes were calculated as prolate spheroid (4/3*π*(a)^2*(b), where “2a” is the minor axis and “2b” is the major axis of the prolate spheroid. “2a” and “2b” were measured with a caliper (mm). Animals were treated with DMAT for approximately 2 weeks. When tumor volumes reached a size unacceptable with the IACUC protocols, animals were sacrificed in a CO2 euthanasia chamber. Tumors were collected for further histological analysis. […]
In vivo therapy with DMAT of MEG-01 xenografts. […] Tumor diameters were measured using a caliper and tumor volume was calculated using the prolate-spheroid formula. […]

**Q.** What does the source list for CN(C)c1nc2c(Br)c(Br)c(Br)c(Br)c2[nH]1 [DMAT, 2-dimethylamino-4,5,6,7-tetrabromo-1H-benzimidazole]?
**A.** necrotic and apoptotic areas of tumors from treated mice vs untreated (DMSO) control tumors (tumor tissue and organs; all tumors, hematoxylin-eosin staining): high necrotic and apoptotic areas; other organs of treated mice, hematoxylin-eosin staining (tumor tissue and organs; mouse, in vivo): appeared normal; effect on the kidney, bone marrow, and liver as assessed histologically [1]: had no effect; proliferation of MEG-01 cells (Trypan Blue exclusion) (MEG-01 cells; 25 μM DMAT, compared with 5 nM PMA): level of decrease was similar; cell number / proliferation rate of MEG-01 cells (MEG-01 cells; 50 μM DMAT, 4 days of treatment): maintained a steady number of cells; sensitivity of proliferation to DMAT compared with MCF-7 and SW-480 (WM-164 cells): more resistant; cell counts (WM-164 cells; 10 μM DMAT): cell counts between those of the control and those of the WM-164 cells treated with 20 μM; cell counts (WM-164 cells; 20 μM DMAT): lowest cell counts; tumor volume (MEG-01 xenografts; DMAT 2 mg (in DMSO) per animal per day): proliferation arrest in vivo in large tumors and tumor ablation in small tumors; tumor volume (MEG-01 xenografts; DMAT 3 mg (in DMSO) per animal per day): proliferation arrest in vivo for large tumors and tumor ablation in small tumors; response of xenograft tumors to treatment (summary) (MEG-01 xenografts; mouse, in vivo): tumor ablation
